Measurements: patent US7718764B2, “Biologically active peptide [sequence] derivatives” (CMS Peptides Patent Holding Company Limited, priority 2004, dated 2010)

Test system: mice T-lymphocyte
Assay: Mice T-lymphocyte transformation induced by ConA in vitro (spleen cells, MTT)
Format: cell-based, BALB/c mice
Conditions: for OD: Table 2, ConA 5 μg/ml, 68 hrs
Method: The spleens from healthy mice were isolated aseptically and manually dispersed in 10% FBS RPMI-1640 solution using an injection needle. The dispersed cell suspension was further sieved through a 100-gauge 150 μm diameter stainless steel sieve. The spleen cell suspension was adjusted to a density of 4×10^6/ml and was aliquoted onto 96-well cell culture plates at 100 μl/well. Peptides were dissolved in plain RPMI-1640. The design of the groupings was as given below.
Peptide group: 100 μl working peptide solution+75 μl spleen cell suspension+25 μl ConA working solution.
ConA control group: 100 μl RPMI-1640+75 μl spleen cell suspension+25 μl ConA working solution.
Negative control group: 125 μl RPMI-1640+75 μl spleen cell suspension.
The final concentration of ConA in the well was 5 μg/ml. The final concentrations of peptides in the well were 80 μg/ml, 16 μg/ml, 3.2 μg/ml, 0.64 μg/ml, and 0.128 μg/ml. Each peptide group contained three parallel wells, and eight or twelve wells for the control groups. The cells were incubated for 68 hrs at 37° C., 5% CO2. MTT method was used to obtain a reading of OD570 nm of each well referenced at 630 nm on an ELISA reader.

## PLNPK [CMS-010.26]
Peptide 0.128 μg/ml, ConA control 0.467 ± 0.043
  OD: 0.354 ± 0.017
Peptide 0.64 μg/ml, ConA control 0.467 ± 0.043
  OD: 0.348 ± 0.025
Peptide 3.2 μg/ml, ConA control 0.467 ± 0.043
  OD: 0.332 ± 0.015
Peptide 16 μg/ml, ConA control 0.467 ± 0.043
  OD: 0.356 ± 0.006
Peptide 80 μg/ml, MTT OD570 nm ref 630 nm, ConA control 0.467 ± 0.043, negative control 0.134 ± 0.011
  OD: 0.353 ± 0.016
At suitable concentrations, vs ConA positive control P<0.05
  Effect on mice T-lymphocyte transformation induced by ConA in vitro: suppress
